Legend:
human P2X7 [1] = biological target: T1, human P2X7 (Homo sapiens (Human), UniProt Q99572); test: Radioligand binding, human P2X7-1321N1 cell membranes, tritiated A-804598; settings: human P2X7-1321N1 membranes, tracer tritiated A-804598, 1 hour 4° C.
Experimental: (§1) P2X7 Antagonism in Recombinant hP2X7 Cells: (a) Ca^2+ Flux (b) Radioligand Binding
(§2) (B) Radioligand binding: human or rat P2X7-1321N1 cells were collected and frozen @−80° C. On the day of the experiment, cell membrane preparations were made according to standard published methods. […] The compound can be prepared as described in the literature. […] The assay was terminated by filtration (GF/B filters pre-soaked with 0.3% PEI) and washed with washing buffer (Tris-HCl 50 mM). The IC50 generated in the binding assay was corrected for tracer concentration and affinity of the tracer to derive at the affinity (Ki) of the test compounds.

rat P2X7 [2] = biological target: T2, rat P2X7 (Rattus norvegicus (Rat), UniProt Q64663); test: Radioligand binding, rat P2X7-1321N1 cell membranes, tritiated A-804598; settings: rat P2X7-1321N1 membranes, tracer tritiated A-804598, 1 hour 4° C.
T2 sequence (Q64663 whole entry): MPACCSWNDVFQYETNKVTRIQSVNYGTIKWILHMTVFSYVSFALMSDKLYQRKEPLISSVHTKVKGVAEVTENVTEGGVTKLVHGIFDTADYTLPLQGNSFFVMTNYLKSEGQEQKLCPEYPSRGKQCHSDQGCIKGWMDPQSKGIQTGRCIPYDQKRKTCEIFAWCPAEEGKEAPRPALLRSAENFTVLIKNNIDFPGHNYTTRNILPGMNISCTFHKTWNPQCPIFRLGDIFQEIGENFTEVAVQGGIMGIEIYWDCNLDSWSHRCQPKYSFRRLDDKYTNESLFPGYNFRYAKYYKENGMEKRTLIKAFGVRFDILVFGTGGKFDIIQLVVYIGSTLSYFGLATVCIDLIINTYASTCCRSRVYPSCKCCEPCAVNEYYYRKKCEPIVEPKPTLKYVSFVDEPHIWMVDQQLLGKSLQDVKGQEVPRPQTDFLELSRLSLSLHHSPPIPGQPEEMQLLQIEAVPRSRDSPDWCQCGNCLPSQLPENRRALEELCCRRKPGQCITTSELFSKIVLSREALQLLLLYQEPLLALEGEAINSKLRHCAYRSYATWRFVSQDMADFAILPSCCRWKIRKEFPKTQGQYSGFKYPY
Experimental: as §1, §2

human P2X7 [3] = biological target: T1, human P2X7; test: Ca2+ flux (FLIPR) in 1321N1 cells expressing recombinant human P2X7 channel; format: cell-based; settings: human P2X7, 250 μM BzATP
Experimental: as §1
(§3) (A) Ca^2+flux: 1321N1 cells expressing the recombinant human, rat or mouse P2X7 channel was cultured in HyQ DME/(HyClone/Dulbecco's Modified Eagle Medium) high glucose supplemented with 10% Fetal Bovine Serum (FBS) and appropriate selection marker. Cells were seeded at a density of 25000 cells/well (96-well clear bottom black walled plates) in 100 μl volume/well. On the day of the experiment, cell plates were washed with assay buffer, containing (in mM): 130 NaCl, 2 KCl, 1 CaCl2, 1 MgCl2, 10 HEPES, 5 glucose; pH 7.40 and 300 mOs. After the wash, cells were loaded with the Calcium-4 dye (Molecular Device) and incubated in the dark for 60 minutes. Test compounds were prepared at 250× the test concentration in neat DMSO. Intermediate 96-well compound plates were prepared by transferring 1.2 μL of the compound into 300 μL of assay buffer. A further 3× dilution occurred when transferring 50 μL/well of the compound plate to 100 μL/well in the cell plate. Cells were incubated with test compounds and dye for 30 minutes. […] The fluorescence change was measured 180 seconds after adding the agonist.

rat P2X7 [4] = biological target: T2, rat P2X7; test: Ca2+ flux (FLIPR) in 1321N1 cells expressing recombinant rat P2X7 channel; format: cell-based; settings: rat P2X7, 250 μM BzATP
Experimental: as §1, §3

T1 sequence (Q99572 whole entry): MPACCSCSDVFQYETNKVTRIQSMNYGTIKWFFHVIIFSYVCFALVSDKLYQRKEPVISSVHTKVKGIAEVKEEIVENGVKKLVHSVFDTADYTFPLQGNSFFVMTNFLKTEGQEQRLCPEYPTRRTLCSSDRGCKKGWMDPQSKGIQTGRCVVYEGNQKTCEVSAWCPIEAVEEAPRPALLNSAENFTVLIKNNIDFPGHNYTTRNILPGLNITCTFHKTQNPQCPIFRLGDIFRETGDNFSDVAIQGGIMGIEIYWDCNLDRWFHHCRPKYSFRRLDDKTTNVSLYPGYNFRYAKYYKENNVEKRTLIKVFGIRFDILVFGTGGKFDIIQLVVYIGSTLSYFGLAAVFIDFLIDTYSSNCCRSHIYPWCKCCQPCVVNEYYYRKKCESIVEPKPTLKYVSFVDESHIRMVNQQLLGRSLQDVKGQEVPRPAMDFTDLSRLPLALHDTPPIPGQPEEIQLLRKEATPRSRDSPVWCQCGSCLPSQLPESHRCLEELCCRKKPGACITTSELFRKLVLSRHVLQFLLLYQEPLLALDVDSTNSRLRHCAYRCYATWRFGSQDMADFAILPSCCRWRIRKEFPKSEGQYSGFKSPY

| SMILES | Ki (human P2X7 [1]) | Ki (rat P2X7 [2]) | IC50 (human P2X7 [3]) | IC50 (rat P2X7 [4]) |
| --- | --- | --- | --- | --- |
| Cc1c(C(=O)N2[C@H]3CC[C@@H]2c2nnc(-c4cscn4)n2C3)cccc1C(F)(F)F [Example 53, (6S,9R)-10-{[2-Methyl-3-(trifluoromethyl)phenyl]carbonyl}-3-(1,3-thiazol-4-yl)-6,7,8,9-tetrahydro-5H-6,9-epimino[1,2,4]triazolo[4,3-a]azepine] | 12.6 nM | 7.9 nM | 3.1 nM | 3860 nM |
| O=C(c1cccc(C(F)(F)F)c1Cl)N1[C@H]2CC[C@@H]1c1nnc(-c3cccs3)n1C2 [Example 61, (6S,9R)-10-{[2-Chloro-3-(trifluoromethyl)phenyl]carbonyl}-3-thiophen-2-yl-6,7,8,9-tetrahydro-5H-6,9-epimino[1,2,4]triazolo[4,3-a]azepine] | 4 nM |  | 2.6 nM | 10000 nM |
| O=C(c1cccc(C(F)(F)F)c1Cl)N1[C@H]2CC[C@@H]1c1nnc(-c3ncccn3)n1C2 [Example 46, (6S,9R)-10-{[2-Chloro-3-(trifluoromethyl)phenyl]carbonyl}-3-pyrimidin-2-yl-6,7,8,9-tetrahydro-5H-6,9-epimino[1,2,4]triazolo[4,3-a]azepine] | 15.8 nM | 6.3 nM | 15.2 nM | 253 nM |
| O=C(c1cccc(C(F)(F)F)c1Cl)N1[C@H]2CC[C@@H]1c1nnc(-c3cscn3)n1C2 [Example 49, (6S,9R)-10-{[2-Chloro-3-(trifluoromethyl)phenyl]carbonyl}-3-(1,3-thiazol-4-yl)-6,7,8,9-tetrahydro-5H-6,9-epimino[1,2,4]triazolo[4,3-a]azepine] | 20 nM | 4 nM | 5 nM | 13.5 nM |
| O=C(c1cccc(C(F)(F)F)c1Cl)N1[C@H]2CC[C@@H]1c1nnc(-c3cncs3)n1C2 [Example 57, (6S,9R)-10-{[2-Chloro-3-(trifluoromethyl)phenyl]carbonyl}-3-(1,3-thiazol-5-yl)-6,7,8,9-tetrahydro-5H-6,9-epimino[1,2,4]triazolo[4,3-a]azepine] | 35.5 nM |  | 97.7 nM | > 10000 nM |
| O=C(c1cccc(C(F)(F)F)c1Cl)N1[C@H]2CC[C@@H]1c1nnc(-c3cccnc3)n1C2 [Example 48, (6S,9R)-10-{[2-Chloro-3-(trifluoromethyl)phenyl]carbonyl}-3-pyridin-3-yl-6,7,8,9-tetrahydro-5H-6,9-epimino[1,2,4]triazolo[4,3-a]azepine] | 39.8 nM |  | 13.2 nM |  |
| O=C(c1cccc(C(F)(F)F)c1Cl)N1[C@H]2CC[C@@H]1c1nnc(-c3ccc[nH]3)n1C2 [Example 62, (6S,9R)-10-{[2-Chloro-3-(trifluoromethyl)phenyl]carbonyl}-3-(1H-pyrrol-2-yl)-6,7,8,9-tetrahydro-5H-6,9-epimino[1,2,4]triazolo[4,3-a]azepine] | 6.3 nM |  | 19.6 nM | > 10000 nM |
| Cc1ncsc1-c1nnc2n1C[C@@H]1CC[C@H]2N1C(=O)c1cccc(C(F)(F)F)c1Cl [Example 59, (6S,9R)-10-{[2-Chloro-3-(trifluoromethyl)phenyl]carbonyl}-3-(4-methyl-1,3-thiazol-5-yl)-6,7,8,9-tetrahydro-5H-6,9-epimino[1,2,4]triazolo[4,3-a]azepine] | 126 nM |  | 100 nM | > 10000 nM |
| O=C(c1cccc(C(F)(F)F)c1Cl)N1[C@H]2CC[C@@H]1c1nnc(-c3ccc(F)cn3)n1C2 [Example 45, (6S,9R)-10-{[2-Chloro-3-(trifluoromethyl)phenyl]carbonyl}-3-(5-fluoropyridin-2-yl)-6,7,8,9-tetrahydro-5H-6,9-epimino[1,2,4]triazolo[4,3-a]azepine] | 12.6 nM |  | 13.1 nM |  |
| Cc1cc(-c2nnc3n2C[C@@H]2CC[C@H]3N2C(=O)c2cccc(C(F)(F)F)c2Cl)[nH]n1 [Example 51, (6S,9R)-10-{[2-Chloro-3-(trifluoromethyl)phenyl]carbonyl}-3-(3-methyl-1H-pyrazol-5-yl)-6,7,8,9-tetrahydro-5H-6,9-epimino[1,2,4]triazolo[4,3-a]azepine] | 39.8 nM | 7.9 nM | 14.4 nM | 4100 nM |
| O=C(c1cccc(C(F)(F)F)c1Cl)N1[C@H]2CC[C@@H]1c1nnc(-c3ccsc3)n1C2 [Example 58, (6S,9R)-10-{[2-Chloro-3-(trifluoromethyl)phenyl]carbonyl}-3-thiophen-3-yl-6,7,8,9-tetrahydro-5H-6,9-epimino[1,2,4]triazolo[4,3-a]azepine] | 10 nM |  | 1.7 nM | 713 nM |
| O=C(c1cccc(C(F)(F)F)c1Cl)N1[C@H]2CC[C@@H]1c1nnc(-c3ccccn3)n1C2 [Example 41, (6S,9R)-10-{[2-Chloro-3-(trifluoromethyl)phenyl]carbonyl}-3-pyridin-2-yl-6,7,8,9-tetrahydro-5H-6,9-epimino[1,2,4]triazolo[4,3-a]azepine] | 12.6 nM | 7.9 nM | 6.3 nM | 1580 nM |
| O=C(c1ccc(Cl)c(F)c1Cl)N1[C@H]2CC[C@@H]1c1nnc(-c3cscn3)n1C2 [Example 54, (6S,9R)-10-[(2,4-Dichloro-3-fluorophenyl)carbonyl]-3-(1,3-thiazol-4-yl)-6,7,8,9-tetrahydro-5H-6,9-epimino[1,2,4]triazolo[4,3-a]azepine] | 25.1 nM | 7.9 nM | 6.1 nM | 8910 nM |
| O=C(c1ccc(F)c(C(F)(F)F)c1Cl)N1[C@H]2CC[C@@H]1c1nnc(-c3cscn3)n1C2 [Example 52, (6S,9R)-10-{[2-Chloro-4-fluoro-3-(trifluoromethyl)phenyl]carbonyl}-3-(1,3-thiazol-4-yl)-6,7,8,9-tetrahydro-5H-6,9-epimino[1,2,4]triazolo[4,3-a]azepine] | 31.6 nM | 6.3 nM | 10.2 nM | 131 nM |
| O=C(c1cccc(C(F)(F)F)c1Cl)N1[C@H]2CC[C@@H]1c1nnc(-c3ccc(F)cc3)n1C2 [Example 40, (6S,9R)-10-{[2-Chloro-3-(trifluoromethyl)phenyl]carbonyl}-3-(4-fluorophenyl)-6,7,8,9-tetrahydro-5H-6,9-epimino[1,2,4]triazolo[4,3-a]azepine] | 21.9 nM | 35.5 nM | 12.6 nM | 10000 nM |
| O=C(c1ccnc(C(F)(F)F)c1Cl)N1[C@H]2CC[C@@H]1c1nnc(-c3ccc(Cl)s3)n1C2 [Example 60, (6S,9R)-3-(5-Chlorothiophen-2-yl)-10-{[3-chloro-2-(trifluoromethyl)pyridin-4-yl]carbonyl}-6,7,8,9-tetrahydro-5H-6,9-epimino[1,2,4]triazolo[4,3-a]azepine] | 21.9 nM |  | 14.9 nM | 2340 nM |
| O=C(c1cccc(C(F)(F)F)c1Cl)N1[C@H]2CC[C@@H]1c1nnc(-c3cnccn3)n1C2 [Example 42, (6S,9R)-10-{[2-Chloro-3-(trifluoromethyl)phenyl]carbonyl}-3-pyrazin-2-yl-6,7,8,9-tetrahydro-5H-6,9-epimino[1,2,4]triazolo[4,3-a]azepine] | 12.6 nM | 7.9 nM | 20 nM | 251 nM |
| Cc1nc(-c2nnc3n2C[C@@H]2CC[C@H]3N2C(=O)c2cccc(C(F)(F)F)c2Cl)cs1 [Example 56, (6S,9R)-10-{[2-Chloro-3-(trifluoromethyl)phenyl]carbonyl}-3-(2-methyl-1,3-thiazol-4-yl)-6,7,8,9-tetrahydro-5H-6,9-epimino[1,2,4]triazolo[4,3-a]azepine] |  |  | 30.8 nM |  |
| O=C(c1cccc(C(F)(F)F)c1Cl)N1[C@H]2CC[C@@H]1c1nnc(-c3ccc(Cl)s3)n1C2 [Example 55, (6S,9R)-3-(5-Chlorothiophen-2-yl)-10-{[2-chloro-3-(trifluoromethyl)phenyl]carbonyl}-6,7,8,9-tetrahydro-5H-6,9-epimino[1,2,4]triazolo[4,3-a]azepine] | 25.1 nM |  | 17.1 nM |  |
| O=C(c1ccc(F)c(Cl)c1Cl)N1[C@H]2CC[C@@H]1c1nnc(-c3cnccn3)n1C2 [Example 47, (6S,9R)-10-[(2,3-Dichloro-4-fluorophenyl)carbonyl]-3-pyrazin-2-yl-6,7,8,9-tetrahydro-5H-6,9-epimino[1,2,4]triazolo[4,3-a]azepine] | 10 nM |  | 20.3 nM |  |
